Where two headings read alike, the source gives them in different places.
Key:
17β-HSD3 [1] = target: T1, 17β-HSD3 (Homo sapiens, UniProt P37058); experiment: 17β-HSD3 scintillation proximity assay (SPA); assay type: biochemical; design: made in house; CHAPS-solubilised 100,000 x g supernatant
T1 sequence (P37058 1-310): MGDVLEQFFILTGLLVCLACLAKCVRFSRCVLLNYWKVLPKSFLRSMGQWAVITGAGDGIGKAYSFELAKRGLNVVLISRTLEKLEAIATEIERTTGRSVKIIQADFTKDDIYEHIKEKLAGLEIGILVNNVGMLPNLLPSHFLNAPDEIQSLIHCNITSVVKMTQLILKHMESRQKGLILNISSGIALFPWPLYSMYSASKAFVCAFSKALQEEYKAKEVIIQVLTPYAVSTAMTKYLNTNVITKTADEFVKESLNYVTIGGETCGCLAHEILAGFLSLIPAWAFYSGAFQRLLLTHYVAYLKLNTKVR
Method: (§1) HEK293/17β-HSD3 cells were harvested by scraping or treatment with Cell Dissociation Buffer (Invitrogen) and collected in ice cold Phosphate Buffered Saline (PBS) containing a protease inhibitor cocktail (Complete Tabs, Roche Diagnostics). The cells were then pelleted by centrifugation at 1000 rpm and washed once more in the same buffer. The cells were then resuspended in 2× the cell pellet volume with ice cold lysis buffer (40 mM Tris-HCl pH7.5, 2 mM DTT, 1 mM EDTA, 10% Glycerol (v/v), 0.5% CHAPS (w/v), 1M 1-(3-sulfopropyl)pyridinium hydroxide, Complete Tab(s)) and dounce homogenized on ice. The crude lysate was then incubated on ice for 60 minutes to allow for membrane protein solubilization, followed by centrifugation at 100,000×g for 60 minutes at 4° C. The supernatant was then removed and dialyzed overnight at 4° C. against the enzyme storage buffer (40 mM Tris-HCl pH 7.5, 40 mM KCl, 2 mM DTT, 1 mM EDTA, 20% Glycerol (v/v), Complete Tab(s)). Protein concentration was determined by the Bradford assay, the enzyme was aliquotted, and stored at −80° C. Activity was assessed using the SPA described below.
SPA beads conjugated to anti-mouse IgG were incubated overnight in SPA Bead Buffer (50 mM Tris pH 8.0, 10% Glycerol (v/v)), with anti-Testosterone monoclonal antibody (2 μg antibody per 1 mg of SPA beads) under gentle rotation. The antibody saturated bead complex was then spun down at 500 rpm for 10 minutes at 4° C. and the beads were resuspended in SPA Bead Buffer at a final concentration of 0.5 mg/160 μL. The anti-T/SPA Beads were then stored at 4° C. until needed. Enzymatic assays were conducted in 30 μL total reaction volumes in 96-well white Optiplates (Perkin Elmer). The reaction buffer consisted of 50 mM MES pH 6.0, 2 mM DTT, 0.1% CHAPS, 3 mM NADPH, 10% Glycerol (v/v), 850 nM 4-Androstene-3,17-Dione, and 50 nM [3H]4-Androstene-3,17-Dione (Specific Activity 70–110Ci/mmol). Compounds were diluted such that the final concentration of ethanol and DMSO would not exceed 3% (v/v) and 1% (v/v) respectively, corresponding to concentrations that had little or no effect on enzymatic activity (data not shown). Previously prepared and frozen 17β-HSD3 enzyme was diluted into ice cold buffer containing 50 mM Mes, 40 mM KCl, 2 mM DTT, 1 mM EDTA, and 10% glycerol (v/v) and added last to the reaction mixture. The reaction was allowed to proceed for 60 minutes at room temperature and was stopped by the addition of 10 μL of 0.1N HCl. After the reactions were stopped, an excess of the anti-T/SPA Beads (0.5 mg) were added to each well to a final volume of 200 μL. The plates were sealed and shaken at ˜200 rpm on an orbital shaker at room temp for at least 90 minutes or overnight at 4° C. After allowing the beads to settle, the amount of [3H]Testosterone produced in each well was determined by scintillation counting on a Perkin Elmer TopCount instrument and collected as DPMs. The data was then analyzed and percent inhibition and/or IC50 values, based on 10 point serially diluted curves in duplicate or triplicate, were calculated using Microsoft Excel and XLFit programs. […] Input samples and unbound supernatants, from the enzymatic reactions, were quantitated by scintillation counting to aid in the calculation of bound versus free testosterone produced. Km values were calculated using the Lineweaver-Burke formula and plots where 1/v=(Km+[s])/(Vmax [s]). […]

17β-HSD3 [2] = target: T1, 17β-HSD3; experiment: 17β-HSD3 SEAP assay (PSA reporter) in MDA MB 453/17β-HSD3 cells; assay type: cell-based; design: expressed in transfected cells
Method: Cultured MDA MB 453/17β-HSD3 cells were trypsinized, spun at 1000 rpm for 10 minutes, and resuspended in DMEM/10% cFBS supplemented with 5 mM BES at a concentration of 4×10^7 cells per mL. The cells (aliquots of 1×10^7 cells) were then transiently transfected with 3 μg of the PSA-SEAP construct by electroporation at 0.22 kVolts and 960 μFD with a time constant of […]. After a short recovery period, the cells were spun down and resuspended in DMEM/10% cFBS and plated into 96-well tissue culture plates (5×10^5 cells per well in 50 μL). After overnight adherence, the compounds were diluted in DMEM/10% and cFBS was added to the cells. 24 hours later, the medium was removed, fresh media containing the compounds was added in the presence of 10 nM Androstenedione, and this mixture was allowed to incubate for 24 hours. 25 μL of the culture supernatant was then removed and plated into 96-well black Optiplates (Perkin Elmer) for SEAP measurement as described by the reagent manufacturer (Tropix). Briefly, the supernatant was heat inactivated at 65° C. for 30 minutes and then allowed to cool to room temperature. Assay buffer (25 μL, Tropix) was then added and allowed to mix for 5 minutes followed by the addition of the Reaction buffer (25 μL, Tropix) and the plates were then incubated for 20 minutes in the dark. Plates were then read using a Packard Instruments TopCount with luminescent detection and signal was captured for 10 seconds per well and photon emission (cps) was averaged. A standard MTS assay (Promega) as described by the manufacturer, was performed in parallel to normalize the data based on cell numbers. Data analysis including percent inhibition and IC50 determination, based on 10 point serially diluted curves in duplicate, was then performed using Microsoft Excel and XLFit.
The analysis of 17β-HSD3 steroid conversion by TLC is hampered by the limitation to examine large numbers of compounds. […] To test this system, a prostate specific antigen (PSA) reporter plasmid was transfected into MDA-MB453 cells stably expressing 17β-HSD3 and stimulated with different concentrations of androstenedione (FIG. 5B).
To evaluate the suitability of this cellular assay for monitoring 17β-HSD3 cell based activity, the inhibitory effects of 18β-glycyrrhetinic acid and […] were examined.

17β-HSD3 [3] = target: T1, 17β-HSD3; design: made in house; CHAPS-solubilised 100,000 x g supernatant; settings: read-out: Km for androstenedione, previously published value; human 17β-HSD3 prepared from testes microsomal fractionation; cited from earlier work
[4] = substrate: C[C@]12CCC(=O)C=C1CC[C@@H]1[C@@H]2CC[C@]2(C)C(=O)CC[C@@H]12; experiment: 17β-HSD3 scintillation proximity assay (SPA); assay type: biochemical, human; settings: other: 17β-HSD3 from HEK293 transfectants; 0.01 to 10 μM input androstenedione; 3 mM NADPH
Method: as §1, with “The crude lysate was then incubated on ice for 60 minutes to allow for membrane protein solubilization, followed by centrifugation at 100,000×g for 60 minutes at 4° C. The supernatant was then removed and dialyzed overnight at 4° C. against the enzyme storage buffer (40 mM Tris-HCl pH 7.5, 40 mM KCl, 2 mM DTT, 1 mM EDTA, 20% Glycerol (v/v), Complete Tab(s)).” left out
SPA beads conjugated to anti-mouse IgG were incubated overnight in SPA Bead Buffer (50 mM Tris pH 8.0, 10% Glycerol (v/v)), with anti-Testosterone monoclonal antibody (2 μg antibody per 1 mg of SPA beads) under gentle rotation. […] After allowing the beads to settle, the amount of [3H]Testosterone produced in each well was determined by scintillation counting on a Perkin Elmer TopCount instrument and collected as DPMs. The data was then analyzed and percent inhibition and/or IC50 values, based on 10 point serially diluted curves in duplicate or triplicate, were calculated using Microsoft Excel and XLFit programs. […]

NC(=O)C1=CN([C@@H]2O[C@H](COP(=O)(O)OP(=O)(O)OC[C@H]3O[C@@H](n4cnc5c(N)ncnc54)[C@H](OP(=O)(O)O)[C@@H]3O)[C@@H](O)[C@H]2O)C=CC1 [NADPH]
Km (17β-HSD3 [1]; Lineweaver-Burke plots, read-out: Km for NADPH): 30 µM

C[C@]12CCC(=O)C=C1CC[C@@H]1[C@@H]2CC[C@]2(C)C(=O)CC[C@@H]12 [androstenedione]
induction of PSA reporter (17β-HSD3 [2]): 9 fold | activation of PSA reporter (17β-HSD3 [2]; 12 nM androstenedione, 17β-HSD3-MDA-MB453 transfectants): 9 fold | induction of PSA reporter (17β-HSD3 [2]; 1 μM androstenedione, 17β-HSD3-MDA-MB453 cells): 25 fold | Km (17β-HSD3 [3]): 0.72 µM

CC(C)(O)C(=O)Nc1ccc([N+](=O)[O-])c(C(F)(F)F)c1 [hydroxyflutamide]
17β-HSD3 inhibitory activity in the SPA (17β-HSD3 [1]; FIG. 3B): did not display 17β-HSD3 inhibitory activity

B1: human 17β-HSD3 (Homo sapiens) (protein)
chain: MGDVLEQFFILTGLLVCLACLAKCVRFSRCVLLNYWKVLPKSFLRSMGQWAVITGAGDGIGKAYSFELAKRGLNVVLISRTLEKLEAIATEIERTTGRSVKIIQADFTKDDIYEHIKEKLAGLEIGILVNNVGMLPNLLPSHFLNAPDEIQSLIHCNITSVVKMTQLILKHMESRQKGLILNISSGIALFPWPLYSMYSASKAFVCAFSKALQEEYKAKEVIIQVLTPYAVSTAMTKYLNTNVITKTADEFVKESLNYVTIGGETCGCLAHEILAGFLSLIPAWAFYSGAFQRLLLTHYVAYLKLNTKVR
notes: made in house; CHAPS-solubilised 100,000 x g supernatant
Km [4]: 0.92 µM
